Activity calls are given as the source filed them.
Assays:
Galanin receptor type 3 = Galanin receptor type 3 (Homo sapiens, UniProt O60755); assay: Fluorescence-based cell-based primary high throughput dose response assay to identify antagonists of the Galanin Receptor 3 (GalR3).; type: functional
cells [1] = type: functional, cell-based; conditions: HEK-CNG
[2] = biological target: Disintegrin and metalloproteinase domain-containing protein 17 (Homo sapiens, UniProt P78536); assay: exosite inhibitors of ADAM17, dose response, biochemical (AID 743260)
[3] = ADAM10 protease inhibitors, dose response, selectivity assay for ADAM17 exosite inhibitor project, biochemical, FRET peptide substrate, recombinant human ADAM10 (AID 743259);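 further: ADAM10 enzyme cleaving a FRET peptide substrate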
Major prion protein = Major prion protein (Homo sapiens, UniProt P04156); type: functional, cell-based
cells [4] = assay: cells
Vero = assay: cells; type: functional; conditions: Chlorocebus sabaeus
[5] = biological target: T1, Small ubiquitin-related modifier 1 (Homo sapiens, UniProt P63165); assay: inhibitors of SUMO1 peptide binding, dose response, biochemical, fluorescence polarization, uHTS hits (AID 624382); type: functional; conditions: read-out: IC50_Mean
[6] = biological target: T1, Small ubiquitin-related modifier 1; assay: inhibitors of SUMO1 partner interactions, dose response, biochemical, FRET (AID 624383); type: functional; conditions: read-out: IC50_Mean
[7] = biological target: T2, Low molecular weight phosphotyrosine protein phosphatase (Homo sapiens, UniProt P24666); type: functional; conditions: read-out: IC50_Mean;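 further: Dose-response confirmation assay measuring inhibition of LMPTP enzyme activity by fluorescence intensity read-out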
T2 sequence (P24666 whole entry): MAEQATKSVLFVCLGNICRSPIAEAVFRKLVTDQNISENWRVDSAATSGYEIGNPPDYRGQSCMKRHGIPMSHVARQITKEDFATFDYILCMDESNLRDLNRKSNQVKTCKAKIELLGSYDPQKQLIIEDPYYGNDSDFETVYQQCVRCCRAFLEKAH

[8] = biological target: T3, Sentrin-specific protease 8 (Homo sapiens, UniProt Q96LD8); type: functional
T3 sequence (Q96LD8 whole entry): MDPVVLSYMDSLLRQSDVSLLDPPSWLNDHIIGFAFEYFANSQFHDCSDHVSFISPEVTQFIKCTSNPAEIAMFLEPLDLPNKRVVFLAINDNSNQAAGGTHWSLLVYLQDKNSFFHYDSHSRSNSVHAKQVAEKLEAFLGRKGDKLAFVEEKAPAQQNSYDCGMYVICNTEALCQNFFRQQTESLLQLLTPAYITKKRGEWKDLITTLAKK

[9] = biological target: T3, Sentrin-specific protease 8; type: functional; remark: listed apart in the source
[10] = biological target: T4, Replicative DNA helicase DnaB (Mycobacterium tuberculosis, UniProt P9WMR3); assay: DnaB intein splicing inhibitors, dose response, biochemical, cell-free fluorescence (AID 449749); type: functional
T4 sequence (P9WMR3 whole entry): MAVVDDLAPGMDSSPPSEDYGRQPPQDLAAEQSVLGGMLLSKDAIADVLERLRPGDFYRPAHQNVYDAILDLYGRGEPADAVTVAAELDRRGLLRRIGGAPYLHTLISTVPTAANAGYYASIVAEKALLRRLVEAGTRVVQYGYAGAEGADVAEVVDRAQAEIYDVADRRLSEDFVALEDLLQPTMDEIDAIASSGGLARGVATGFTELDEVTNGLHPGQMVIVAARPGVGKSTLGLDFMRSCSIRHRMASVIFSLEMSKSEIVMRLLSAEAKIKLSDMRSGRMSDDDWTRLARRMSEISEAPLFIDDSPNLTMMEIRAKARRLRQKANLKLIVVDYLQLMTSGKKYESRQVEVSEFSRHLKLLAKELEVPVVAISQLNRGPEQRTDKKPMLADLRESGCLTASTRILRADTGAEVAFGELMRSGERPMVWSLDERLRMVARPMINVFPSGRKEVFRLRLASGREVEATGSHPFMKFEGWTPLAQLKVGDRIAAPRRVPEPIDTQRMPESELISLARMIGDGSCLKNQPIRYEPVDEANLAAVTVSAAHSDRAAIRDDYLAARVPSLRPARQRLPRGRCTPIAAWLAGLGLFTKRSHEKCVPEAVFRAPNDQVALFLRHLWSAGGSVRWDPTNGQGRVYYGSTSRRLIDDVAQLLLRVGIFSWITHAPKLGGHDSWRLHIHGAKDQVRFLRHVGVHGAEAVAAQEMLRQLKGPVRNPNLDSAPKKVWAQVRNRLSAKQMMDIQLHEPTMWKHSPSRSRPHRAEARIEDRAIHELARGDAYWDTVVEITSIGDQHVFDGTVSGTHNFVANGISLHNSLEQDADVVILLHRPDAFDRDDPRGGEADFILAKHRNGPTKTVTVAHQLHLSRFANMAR

Protein RecA = biological target: T5, Protein RecA (Mycobacterium tuberculosis, UniProt P9WHJ3); assay: Fluorescence Cell-Free Homogeneous Dose Retest to Identify Inhibitors of RecA-Intein Splicing Activity. [Related pubchem assays (depositor defined):AID2097, AID2223, AID489010, AID492950]; type: functional
T5 sequence (P9WHJ3 whole entry): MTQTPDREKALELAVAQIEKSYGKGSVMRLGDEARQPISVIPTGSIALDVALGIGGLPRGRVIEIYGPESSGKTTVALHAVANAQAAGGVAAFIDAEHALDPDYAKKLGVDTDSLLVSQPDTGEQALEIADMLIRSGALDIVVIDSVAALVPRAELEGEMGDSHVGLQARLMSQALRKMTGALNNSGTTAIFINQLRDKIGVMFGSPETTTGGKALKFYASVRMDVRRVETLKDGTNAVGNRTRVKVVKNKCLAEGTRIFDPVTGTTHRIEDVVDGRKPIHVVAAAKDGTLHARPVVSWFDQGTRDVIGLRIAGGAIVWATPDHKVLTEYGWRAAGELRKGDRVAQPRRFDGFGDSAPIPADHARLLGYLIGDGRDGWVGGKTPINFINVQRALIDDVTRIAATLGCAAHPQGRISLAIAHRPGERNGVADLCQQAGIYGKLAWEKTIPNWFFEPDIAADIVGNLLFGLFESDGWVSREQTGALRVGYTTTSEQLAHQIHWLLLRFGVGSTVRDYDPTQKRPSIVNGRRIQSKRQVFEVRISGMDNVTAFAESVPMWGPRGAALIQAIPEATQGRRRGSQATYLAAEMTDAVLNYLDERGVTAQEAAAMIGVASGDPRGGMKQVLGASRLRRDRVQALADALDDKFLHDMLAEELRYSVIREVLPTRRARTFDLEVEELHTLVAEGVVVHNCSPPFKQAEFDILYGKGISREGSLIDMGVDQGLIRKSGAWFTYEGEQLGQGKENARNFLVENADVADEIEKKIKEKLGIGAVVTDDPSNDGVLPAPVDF

T1 sequence (P63165 whole entry): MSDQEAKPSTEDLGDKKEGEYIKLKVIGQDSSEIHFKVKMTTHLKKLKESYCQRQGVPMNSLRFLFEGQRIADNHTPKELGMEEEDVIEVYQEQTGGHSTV
Sequence of Galanin receptor type 3 (O60755 whole entry): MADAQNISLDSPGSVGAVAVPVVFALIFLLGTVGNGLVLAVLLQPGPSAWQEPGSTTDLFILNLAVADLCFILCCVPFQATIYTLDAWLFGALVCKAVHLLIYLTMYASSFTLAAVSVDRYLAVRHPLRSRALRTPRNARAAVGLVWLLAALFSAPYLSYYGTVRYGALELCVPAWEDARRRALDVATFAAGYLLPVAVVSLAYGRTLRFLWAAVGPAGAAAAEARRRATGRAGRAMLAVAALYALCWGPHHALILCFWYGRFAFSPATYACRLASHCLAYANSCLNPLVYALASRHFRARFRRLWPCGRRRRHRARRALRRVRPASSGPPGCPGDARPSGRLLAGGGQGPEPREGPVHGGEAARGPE
Sequence of Disintegrin and metalloproteinase domain-containing protein 17 (P78536 whole entry, the tested form may be a part): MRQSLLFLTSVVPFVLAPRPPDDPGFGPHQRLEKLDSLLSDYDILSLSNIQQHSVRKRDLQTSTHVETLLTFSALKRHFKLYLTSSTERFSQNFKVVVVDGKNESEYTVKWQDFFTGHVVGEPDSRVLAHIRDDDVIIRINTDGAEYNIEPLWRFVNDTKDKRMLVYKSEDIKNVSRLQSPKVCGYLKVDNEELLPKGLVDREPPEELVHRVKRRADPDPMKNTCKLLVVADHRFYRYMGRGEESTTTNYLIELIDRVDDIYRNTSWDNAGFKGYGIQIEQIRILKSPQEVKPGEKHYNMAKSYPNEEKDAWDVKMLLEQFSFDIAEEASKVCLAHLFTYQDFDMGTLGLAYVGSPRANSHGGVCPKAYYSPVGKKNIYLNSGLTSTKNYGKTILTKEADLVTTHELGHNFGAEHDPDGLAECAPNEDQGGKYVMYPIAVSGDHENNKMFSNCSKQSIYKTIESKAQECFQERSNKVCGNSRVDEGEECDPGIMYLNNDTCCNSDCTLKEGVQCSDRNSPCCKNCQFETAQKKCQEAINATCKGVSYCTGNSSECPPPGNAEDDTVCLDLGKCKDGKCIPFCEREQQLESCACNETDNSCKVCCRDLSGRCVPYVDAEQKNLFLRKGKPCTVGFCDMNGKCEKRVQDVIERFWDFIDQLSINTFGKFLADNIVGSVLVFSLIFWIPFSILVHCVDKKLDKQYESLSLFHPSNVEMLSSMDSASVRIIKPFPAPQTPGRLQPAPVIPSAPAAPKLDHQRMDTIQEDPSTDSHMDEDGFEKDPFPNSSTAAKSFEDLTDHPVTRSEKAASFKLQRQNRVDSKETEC

For `Cc1cc(C(=O)CSc2nc(N)cc(O)n2)c(C)n1-c1ccc(OC(F)F)cc1`, the IC50 (Galanin receptor type 3) was 2.9 µM (active) and the EC50 (cells [1]) was > 29.9 µM (inactive).
In the case of `Cc1nn(Cc2ccccc2Cl)c2sc(C(=O)NCc3ccc4c(c3)OCO4)cc12`, the IC50 [2] is reported as > 69.5 µM (inactive) and the IC50 [3] is reported as > 69.5 µM (inactive).
With `COc1ccc(C(=O)NNC(=O)CSc2nc(C(C)C)nc3ccccc23)cc1` the IC50 (Major prion protein) was 1.98 µM (active) and the IC50 (cells [4]) was > 138 µM (inactive).
For `O=c1[nH]c(=O)n(Cc2ccco2)c2c1C(C(F)(F)F)(C(F)(F)F)NC(CCc1ccccc1)=N2`, the IC50 (Major prion protein) was 8.51 µM (active) and the IC50 (cells [4]) was 54.4 µM (inactive).
In the case of `O=C(Nc1ccc2oc(=O)ccc2c1)c1ccc(-c2cccc([N+](=O)[O-])c2)o1`, the CC50 (Vero) is reported as 8.41 µM (active), the IC50 [5] is reported as > 66.6 µM (inactive) and the IC50 [6] is reported as 2.43 µM (active). For the same molecule, the IC50 [7] was 25.5 µM (inactive).
In the case of `CCN(CC)c1ccc(NC2CC(=O)N(CCc3ccc(OC)cc3)C2=O)cc1` (stereo not drawn), the IC50 [8] is reported as > 100 µM (inactive) and the IC50 [9] is reported as 45.2 µM (active).
In the case of `CC1=NN(c2ccc(S(=O)(=O)O)cc2C)C(=O)C1`, the AC50 [10] is reported as 3.99 µM (active), the EC50 (Protein RecA) is reported as 4.57 µM (active) and the IC50 [8] is reported as 28 µM (active). For the same molecule, the IC50 [9] was 21.8 µM (active).

Reference: ChEMBL document CHEMBL1201862, “PubChem BioAssay data set” (2004)
